US7049311B1, “Pyrrolbenzodiazepines” (Spirogen Limited, priority 1998, dated 2006)
Where two headings read alike, the source gives them in different places.

How the values were obtained:
RXF 393 = test: NCI in vitro cytotoxicity screen; assay type: cell-based; conditions: Homo sapiens, RXF 393, 48 h, read-out: LC50
Procedure: (§1) The National Cancer Institute (NCI), Bethesda, Md., USA has available an in vitro cytotoxicity screen which consists of approximately 60 human tumour cell lines against which compounds are tested at a minimum of five concentrations each differing 10-fold. A 48 hour continuous exposure protocol is used, where cell viability or growth is estimated with an SRB protein assay.
(§2) The test compounds were evaluated against approximately 60 human tumour cell lines. The NCI screening procedures were described in detail by Monks and co-workers (Monks, A et al., Journal of the National Cancer Institute, 1991, 83, 757). Briefly, cell suspensions were diluted according to the particular cell type and the expected target cell density (5000-40,000 cells per well based on cell growth characteristics), and added by pipette (100 μL) into 96-well microtitre plates. The cells were allowed a preincubation period of 24 hours at 37° C. for stabilisation. Dilutions at twice the intended test concentration were added at time zero in 100 μL aliquots to the wells. The test compounds were evaluated at five 10-fold dilutions (10^−4, 10^−5, 10^−6, 10^−7 and 10^−[…]). The test compounds were incubated for 48 hours in 5% CO2 atmosphere and 100% humidity. The cells were then assayed using the sulphorhodamine B assay. A plate reader was used to read the optical densities and a microcomputer processed the readings into LC50 values, which is the dosage required to kill half of the cells.

SK-MEL-28 = test: NCI in vitro cytotoxicity screen; assay type: cell-based; conditions: Homo sapiens, SK-MEL-28, 48 h, read-out: LC50
Procedure: as §1, §2

KM12 = test: NCI in vitro cytotoxicity screen; assay type: cell-based; conditions: Homo sapiens
Procedure: as §1, §2

MDA-MB-435 = test: NCI in vitro cytotoxicity screen; assay type: cell-based; conditions: Homo sapiens, MDA-MB-435, 48 h, read-out: LC50
Procedure: as §1, §2

NCI-H522 = test: NCI in vitro cytotoxicity screen; assay type: cell-based; conditions: Homo sapiens, NCI-H522, 48 h, read-out: LC50
Procedure: as §1, §2

SNB-75 = test: NCI in vitro cytotoxicity screen; assay type: cell-based; conditions: Homo sapiens, SNB-75, 48 h, read-out: LC50
Procedure: as §1, §2

MALME-3M = test: NCI in vitro cytotoxicity screen; assay type: cell-based; conditions: Homo sapiens, Malme-3M, 48 h, read-out: LC50
Procedure: as §1, §2

HS 578T = test: NCI in vitro cytotoxicity screen; assay type: cell-based; conditions: Homo sapiens; HS 578T (Breast), 48 hour exposure, SRB assay; read-out: LC50 (the source's name)
Procedure: as §1, §2

COLO 205 = test: NCI in vitro cytotoxicity screen; assay type: cell-based; conditions: Homo sapiens, COLO 205, 48 h, read-out: LC50
Procedure: as §1, §2

SK-MEL-2 = test: NCI in vitro cytotoxicity screen; assay type: cell-based; conditions: Homo sapiens, SK-MEL-2, 48 h, read-out: LC50
Procedure: as §1, §2

NCI-H23 = test: NCI in vitro cytotoxicity screen; assay type: cell-based; conditions: Homo sapiens, NCI-H23, 48 h, read-out: LC50
Procedure: as §1, §2

MDA-N = test: NCI in vitro cytotoxicity screen; assay type: cell-based; conditions: Homo sapiens, 48 h, read-out: LC50
Procedure: as §1, §2

SK-MEL-5 = test: NCI in vitro cytotoxicity screen; assay type: cell-based; conditions: Homo sapiens, SK-MEL-5, 48 h, read-out: LC50
Procedure: as §1, §2

UACC-257 = test: NCI in vitro cytotoxicity screen; assay type: cell-based; conditions: Homo sapiens, UACC-257, 48 h, read-out: LC50
Procedure: as §1, §2

HCC-2998 = test: NCI in vitro cytotoxicity screen; assay type: cell-based; conditions: Homo sapiens, HCC 2998, 48 h, read-out: LC50
Procedure: as §1, §2

UACC-62 = test: NCI in vitro cytotoxicity screen; assay type: cell-based; conditions: Homo sapiens, UACC-62, 48 h, read-out: LC50
Procedure: as §1, §2

CH1cisR = test: Ovarian carcinoma cytotoxicity assay; assay type: cell-based; conditions: Homo sapiens, CH1cisR; cisplatin-resistant, 96 hours, sulphorhodamine B; read-out: IC50 CH1cisR
Procedure: (§3) Compounds of the invention (and Anthramycin as a comparison) were evaluated for their cytotoxic activity in ovarian cell lines by Dr Lloyd R. Kelland's group at The Institute of Cancer Research, Sutton, UK. The five cell lines investigated were SKOV-3, A2780/A2780cisR and CH1/CH1cisR (cis R denotes that the cell line is resistant to cisplatin).
(§4) Single viable cells were seeded in growth medium (160 μL) in […] microtitre plates and allowed to attach overnight. […] After 96 hours, the medium was removed and the remaining cells fixed by exposure to 10% trichloroacetic acid on ice for 30 minutes. The wells were then washed 3-4 times with tap water, air dried overnight and treated with 100 μL of sulphorhodamine B (0.4%) dissolved in 1% acetic acid. Staining was allowed to continue for 10-15 minutes, then the wells were washed 3-4 times with 1% acetic acid, air dried and then added to Tris base (100 μL of 10 mM). Plates were then shaken and absorbance readings at 540 nm were determined using a plate reader. By using the Quattro-Pro software package, the IC50 values were calculated from plots of concentration versus percentage absorbance (compared with 8 untreated wells).

SKOV-3 = test: Ovarian carcinoma cytotoxicity assay; assay type: cell-based; conditions: Homo sapiens, SK-OV-3; 96 hours, sulphorhodamine B; read-out: IC50 Skov3
Procedure: as §3, §4

CH1 = test: Ovarian carcinoma cytotoxicity assay; assay type: cell-based; conditions: Homo sapiens
Procedure: as §3, §4

[1] = test system: human tumour cells cultivated in hollow fibres implanted in mice; test: NCI Hollow Fibre Assay; assay type: in vivo
Source text: The Biological testing Branch of the Developmental Therapeutics Program of the NCI has adopted a preliminary in vivo screening tool for assessing the potential anticancer activity of compounds identified by the large scale in vitro cell screen. For these assays, human tumour cells are cultivated in polyvinylidene (PVDF) hollow fibres, and a sample of each cell line is implanted into each of two physiologic compartments (intraperitoneal and subcutaneaous) in mice. Each test mouse received a total of 6 fibres (3 intraperitoneally and 3 subcutaneously) representing 3 distinct cancer cell lines. These mice are treated with potential antitumour compounds at each of 2 test doses by the intraperitoneal route using a QD×4 treatment schedule. Vehicle controls consist of 6 mice receiving the compound diluent only. The fibre cultures are collected on the day following the last day of treatment. To assess anticancer effects, the viable cell mass is determined for each of the cell lines using a formazyn dye (MTT) conversion assay. From this, the % T/C can be calculated using the average optical density of compound treated samples divided by the average optical; density of the vehicle controls. In addition, the net increase in cell mass can be determined for each sample, as a sample of fibre cultures are assessed for viable cell mass on the day of implantation into mice. Thus, the cytostatic and cytocidal capacities of the test compound can be assessed.
Generally, each compound is tested against a minimum of 12 human cancer cell lines. This represents a total of 4 experiments since each experiment contains 3 cell lines. The data are reported as % T/C for each of the 2 compound doses against each of the cell lines with separate values calculated for the intraperitoneal and subcutaneous samples.
Compounds are selected for further in vivo testing in standard subcutaneous xenograft models on the basis of several hollow fibre assay criteria. These include: (1) a % T/C of 50 or less in 10 of the 48 possible test combinations (12 cell lines×2 sites×2 Compound doses); (2) activity at a distance (intraperitoneal drug/subcutaneous culture) in a minimum of 4 of the 24 possible combinations; and/or (3) a net cell kill of 1 or more of the cell lines in either implant site. To simplify evaluation, a points system has been adopted which allows rapid evaluation of the activity of a given compound. For this, a value of 2 is assigned for each compound dose which results in a 50% or greater reduction in viable cell mass. The intraperitoneal and subcutaneous samples are scored separately so that criteria (1) and (2) can be evaluated. Compounds with a combined IP+SC score of 20, a SC score of 8 or a net cell kill of one or more cell lines are referred for xenograft testing. […] In addition to these criteria, other factors (e.g. unique structure, mechanism of action) may result in referral of a compound for xenograft testing without the compound meeting these criteria.

A2780cisR = test: Ovarian carcinoma cytotoxicity assay; assay type: cell-based, human; conditions: Homo sapiens, A2780cisR
Procedure: as §3, §4

A2780 = test: Ovarian carcinoma cytotoxicity assay; assay type: cell-based, human; conditions: Homo sapiens, A2780; 96 hours, sulphorhodamine B; read-out: IC50 A2780
Procedure: as §3, §4

NCI-H226 = test: NCI in vitro cytotoxicity screen; assay type: cell-based; conditions: Homo sapiens, NCI-H226, 48 h, read-out: LC50
Procedure: as §1, §2

SF-539 = test: NCI in vitro cytotoxicity screen; assay type: cell-based; conditions: Homo sapiens, SF-539, 48 h, read-out: LC50
Procedure: as §1, §2

M14 = test: NCI in vitro cytotoxicity screen; assay type: cell-based; conditions: Homo sapiens, M14, 48 h, read-out: LC50
Procedure: as §1, §2

LOX IMVI = test: NCI in vitro cytotoxicity screen; assay type: cell-based; conditions: Homo sapiens, 48 h, read-out: LC50
Procedure: as §1, §2

786-0 = test: NCI in vitro cytotoxicity screen; assay type: cell-based; conditions: Homo sapiens, 786-0, 48 h, read-out: LC50
Procedure: as §1, §2

NCI-H460 = test: NCI in vitro cytotoxicity screen; assay type: cell-based; conditions: Homo sapiens, NCI-H460, 48 h, read-out: LC50
Procedure: as §1, §2

HCT-116 = test: NCI in vitro cytotoxicity screen; assay type: cell-based; conditions: Homo sapiens, HCT-116, 48 h, read-out: LC50
Procedure: as §1, §2

[2] = CH1, 96 hours, sulphorhodamine B, read-out: IC50 CH1
[3] = cisplatin-resistant, 96 hours, sulphorhodamine B, read-out: IC50 A2780cisR

| Structure (SMILES) | CC50 (RXF 393) [µM] | CC50 (SK-MEL-28) [µM] | CC50 (MDA-MB-435) [µM] | CC50 (NCI-H522) [µM] | CC50 (MALME-3M) [µM] | CC50 (COLO 205) [µM] | CC50 (SK-MEL-2) [µM] | CC50 (MDA-N) [µM] | CC50 (SK-MEL-5) [µM] | CC50 (HCC-2998) [µM] | CC50 (UACC-62) [µM] | IC50 (CH1cisR) [µM] | IC50 (SKOV-3) [µM] | IC50 (CH1; [2]) [µM] | IC50 (A2780cisR; [3]) [µM] | IC50 (A2780) [µM] | CC50 (M14) [µM] | also measured |
| --- | --- | --- | --- | --- | --- | --- | --- | --- | --- | --- | --- | --- | --- | --- | --- | --- | --- | --- |
| Nc1ccc2c(c1)N=C[C@@H]1CCCN1C2=O [UP2028 (151), (11aS)-8-amino-1,2,3,11a-tetrahydro-5H-pyrrolo[2,1-c][1,4]benzodiazepin-5-one] | 0.7 | 8.1 | 7.2 | 0.8 | 5.7 | 5 | 5.4 | – | – | – | – | – | – | – | – | – | – | CC50 (KM12; KM12 (Colon), 48 hour exposure, SRB assay, read-out: LC50 (the source's name)): 8.8 µM; CC50 (SNB-75): 8.2 µM; CC50 (HS 578T): 9.2 µM |
| C=C1C[C@H]2C=Nc3cc(OCc4ccccc4)c(OC)cc3C(=O)N2C1 [UP2004 (70), (11aS)-8-Benzyloxy-7-methoxy-2-methylidene-1,2,3,11a-tetrahydro-5H-pyrrolo[2,1-c][1,4]benzodiazepin-5-one] | – | – | – | – | – | 3.9 | – | 9 | 7.8 | 5.5 | 5.3 | 0.082 | 0.35 | 0.017 | 0.2 | 0.029 | – | CC50 (NCI-H23): 7.6 µM; CC50 (UACC-257): 7.3 µM; Total score ([1]; combined IP+SC score): 18; IP score ([1]; intraperitoneal fibres, 2 points per dose giving 50% or greater reduction in viable cell mass): 8; SC score ([1]; subcutaneous fibres, 2 points per dose giving 50% or greater reduction in viable cell mass): 10 |
| C=C1C[C@H]2C=Nc3ccc(I)cc3C(=O)N2C1 [UP2023 (64), (11as)-7-Iodo-2-methylidene-1,2,3,11a-tetrahydro-5H-pyrrolo[2,1-c][1,4]benzodiazepin-5-one] | 6.1 | 8.4 | 7.6 | 5.2 | 7.8 | 5.8 | 7.4 | 6.6 | 6 | 7 | 7.2 | 0.43 | 16 | 0.37 | 1.45 | 0.49 | – | CC50 (KM12; KM12, 48 h, read-out: LC50): 7.1 µM; CC50 (NCI-H226): 9.1 µM; CC50 (SF-539): 9.4 µM |
| COc1ccc2c(c1)C(=O)N1CCC[C@H]1C=N2 (stereo in doubt) [UP2068 (96), 7-methoxy-1,2,3,11a-tetrahydro-5H-pyrrolo[2,1-c][1,4]benzodiazepin-5-one] | 6.3 | 9.6 | 8.3 | 8.5 | 8.3 | – | 8.1 | 6.3 | – | – | – | 0.42 | 0.76 | 0.52 | 0.66 | 0.47 | 6.5 | CC50 (LOX IMVI): 9.7 µM |
| COc1cc2c(cc1OCc1ccccc1)N=C[C@@H]1CC(CCO)=CN1C2=O [UP2052 (33)] | – | – | – | 3.1 | – | – | 0.5 | – | – | 0.8 | – | 0.037 | 0.105 | – | – | 0.07 | 2.7 | CC50 (786-0): 3 µM; CC50 (NCI-H460): 3 µM; CC50 (HCT-116): 1.1 µM; IC50 (CH1; CH1, 96 h, read-out: IC50 CH1, 96 hours, sulphorhodamine B): 0.09 µM; IC50 (A2780cisR; 96 h, read-out: IC50 A2780cisR, cisplatin-resistant, 96 hours, sulphorhodamine B): 0.105 µM |
